Assay results published in patent US20240092814A1, “WATER-SOLUBLE Pd(II) COMPLEX, METHOD FOR SYNTHESIZING SAME, AND USE THEREOF AS [sequence] PRECURSOR” (priority 2022, published 2024).
Read-outs that look alike come from different tables or passages of the source.

Columns and labels:
[1] = Solid-state stability and thermal decomposition (TG-DTA); format: physicochemical
Description: (3) Its solid state is stable at room temperature. In the simulated air atmosphere and nitrogen, a thermal decomposition reaction can occur at a lower temperature (<190° C.) to generate palladium metal (see FIG. 2 and FIG. 3), which can reduce energy consumption in the thermal reduction or calcination process of catalyst preparation. Moreover, the decomposition products are Pd, CO2, N2 and H2O, facilitating clean production and environmental protection.
FIG. 2: a thermogravimetric curve (TG-DTA) of (NH4)2[Pd(NO2)2(C2O4)]·2H2O of the present disclosure in simulated air.
FIG. 3: a thermogravimetric curve (TG-DTA) of (NH4)2[Pd(NO2)2(C2O4)]·2H2O of the present disclosure in nitrogen.

[2] = background statement; cited from earlier work
[3] = Stability of aqueous solution (colour change, precipitation); format: physicochemical
Description: (§1) The pH of the solution at a concentration of 100 g/L is about 4-5.

[4] = Solubility in pure water at room temperature; format: physicochemical
Description: as §1

pH of aqueous solution = format: physicochemical; conditions: concentration of 100 g/L
Description: as §1

SMILES: O.O.O=C([O-])C(=O)[O-].O=C([O-])C(=O)[O-].[NH4+].[NH4+].[Pd+2] [(NH4)2[Pd(C2O4)2]·2H2O, ammonium bis(oxalato)palladium(II) dihydrate, reference compound]
- stability ([1]; room temperature, self-redox reaction producing palladium metal): unstable

SMILES: O=[N+]([O-])[O-].O=[N+]([O-])[O-].[Pd+2] [Palladium nitrate solution, palladium nitrate]
- stability in water [2]: unstable in water

SMILES: O=C1[O][Pd]([N+](=O)[O-])([N+](=O)[O-])[O]C1=O [Pd-X6, ammonium dinitrooxalato palladium(II)]
- stability in water ([3]; 60° C. for 5 hours): color of the solution does not change and no precipitation is observed
- stability in water ([3]; room temperature for 2 days): color of the solution does not change and no precipitation is observed
- solid state stability ([1]; room temperature): stable
- thermal decomposition temperature to palladium metal ([1]; simulated air atmosphere and nitrogen): < 190 °C
- solubility [4]: > 400 mg/mL
- solubility in pure water, equivalent Pd [4]: > 120 g Pd/L
- pH of the solution (pH of aqueous solution): 4-5
